Test results published in US12467038B2, “Methods of culturing human pluripotent cells” (Hadasit Medical Research Services and Development Ltd., priority 2019, dated 2025).

Assays:
[1] = test system: hPSCs; assay: Undifferentiated propagation and PGC differentiation of hPSCs on laminin; assay type: cell-based, human; conditions: HES-2 hPSCs
Protocol: LN-hPSCs were cultured on mouse LN111, 3-D Culture Matrix Laminin I (CULTREX, TREVIGEN, #3446-005-01, Gaithersburg, Md., USA). 0.175 ml diluted LN111 (1:14 to a coating concentration of 0.43 mg/ml) was used to coat a well of a 6-well culture dish, leaving a margin of 2-3 mm at the well edge (a final concentration of ˜8 microgram/cm^2). The coated dishes were incubated from 4 hours to 4 days, at 37° C., and washed with PBS before use. LN-hPSCs were cultured in a medium composed of DMEM/F12, B27 supplement (1:50), N2 supplement (1:100), 2 mM L-glutamine, 50 units/ml penicillin, 50 μg/ml streptomycin (all from Invitrogen), and supplemented daily with 20 ng/ml FGF2 (Peprotech). Cells were passaged every 5-6 days using 1.5 mg/ml collagenase type IV (Invitrogen). 5 μM ROCK inhibitor (Y-27632, Peprotech) was added for the first day after passaging.
hPSCs were cultured on human recombinant LN521 (BIOLAMINA, Sundbyberg, Sweden). Coating of culture dishes with hrLN521 was performed according to the manufacturer's instructions (Coating concentration ˜0.45 microgram/cm^2). Cells were cultured in the same medium used for culturing LN-hPSCs, and passaged with collagenase type IV.
PGC differentiation of hPSCs in suspension—LN-hPSCs and hPSCs cultured on hrLN-521 were dissociated into a single-cell suspension using TrypLE Select Enzyme (Invitrogen). Primed hPSCs were first dissociated from the MEF feeders by treatment with collagenase type IV, followed by dissociation into single cells by TrypLE Select Enzyme. 2000-3000 cells were seeded into a microwell of AggreWell™800 24-well plate (STEMCELL Technologies), and cultured as EBs in suspension, in PGCLC differentiation medium as described elsewhere (Irie et al., 2015).

[2] = test system: LN-hPSCs; assay: FACS analysis of pluripotency cell-surface markers; assay type: cell-based, human; conditions: HES-1 cells cultured on LN111
Protocol: Signaling pathways analysis—hPSCs were cultured on LN111 for 2 days in complete medium, and then for additional 3-5 days in a medium+/−FGF2 in the presence of the following small molecules: PD032590 1 μM (Peprotech), LY294002 10 μM, SB431542 10 μM, CHIR99021 3 μM (all from Cayman Chemical, Michigan, USA), XAV939 2.5 μM (Peprotech), BMP4 50 ng/ml (Biogems-Peprotech). FACS analysis—FACS analyses were performed using the following primary antibodies: mouse IgM anti-TRA-1-60 (1:100; mab4360, R&D), and mouse IgM anti-TRA-1-81 (1:100; mab4381, R&D), and Rat IgM anti-SSEA-3. Staining with respective isotype control antibodies (all from eBiosciences) served as controls. Detection of primary antibodies was performed using the following secondary antibodies: FITC-conjugated Polyclonal Goat Anti-Mouse Immunoglobulins (1:100; Dako, Glostrup, Denmark), APC-conjugated Goat anti-Mouse IgM/G (1:200; Cat. No. 1020-11, SouthernBiotech, Birmingham, Ala., USA), and APC-conjugated anti-Rat (1:200; eBioscience). FACS analysis was performed on a FACScalibur system (Becton-Dickinson, San Jose, Calif.) using the Cellquest software. A detailed FACS procedure is described elsewhere. FACS analysis—FACS analyses for pluripotency marker expression were performed using mouse anti-TRA-1-60 (1:100; mab4360, R&D), and mouse anti-TRA-1-81 (1:100; mab4381, R&D). […]

With “LN111: mouse LN111, 3-D Culture Matrix Laminin I (CULTREX, TREVIGEN), coating of culture dishes” the “competence to initiate germ cell specification” value [1] was “competent to initiate germ cell specification” and the “cells expressing TRA-1-60 and TRA-1-81” value [2] was “over 90%”.
